Where a SMILES comes first, the peptide text is derived from it. Bridges are numbered along the chain shown (N, C = ends).
Columns and labels:
Type in all cases: cell-based
[1] = target: T1, hNav1.1 (Homo sapiens, UniProt P35498); test: FLIPR membrane potential assay, hNav1.1; settings: for Selectivity for Nav1.7, Nav subtype 1.1: membrane potential assay
T1 construct: host or cells: HEK293
Procedure: (§1) HEK293 cells stably expressing hNav1.1, hNav1.2, hNav1.3, hNav1.4, hNav1.5, hNav1.6, hNav1.7 and […] (SB Drug Discovery, Glasgow, UK) were cultured in minimum essential media (MEM) containing 10% v/v FBS supplemented with L-glutamine (2 mM) and selection antibiotics G-418 (0.5 mg/mL), blasticidin (2-4 μg/mL) and zeocin (0.5 mg/mL) as recommended by the manufacturer. CHO cells stably expressing hNav1.8 in a tetracycline-inducible system (Chantest, OH, USA) were cultured in Ham's F-12 containing 10% v/v FBS and selection antibiotics as recommended by the manufacturer. To induce hNav1.8 expression, cells were cultured in the presence of tetracycline (1 μg/mL) for 24 h at 27° C. Cells were grown in a humidified 5% CO2 incubator at 37° C., grown to 70-80% confluence, and passaged every 3-4 days using TrypLE Express (Invitrogen).
(§2) Cells were plated 48 h before the assay on 384-well black walled imaging plates at a density of 10,000 to 15,000 cells per well and were loaded with red membrane potential dye for 30 min at 37° C. (Molecular Devices, CA, USA). One vial of bulk red membrane potential dye was reconstituted to a 10× stock solution with PSS and stored at −20° C. and diluted to 1× solution with PSS on the day of the assay. […] Changes in membrane potential were assessed using the FLIPR^TETRA (excitation 515 to 545 nm, emission 565 to 625 nm) every second for 300 s after adding agonists.

[2] = target: T2, hNav1.2 (Homo sapiens, UniProt Q99250); test: FLIPR membrane potential assay, hNav1.2; settings: for Selectivity for Nav1.7, Nav subtype 1.2: membrane potential assay
T2 construct: host or cells: HEK293
Procedure: as §1, §2

[3] = target: T3, hNav1.6 (Homo sapiens, UniProt Q9UQD0); test: FLIPR membrane potential assay, hNav1.6; settings: for Selectivity for Nav1.7, Nav subtype 1.6: membrane potential assay
T3 construct: host or cells: HEK293
Procedure: as §1, §2

[4] = target: T4, hNav1.3 (Homo sapiens, UniProt Q9NY46); test: FLIPR membrane potential assay, hNav1.3; settings: for Selectivity for Nav1.7, Nav subtype 1.3: membrane potential assay
T4 construct: host or cells: HEK293
Procedure: as §1, §2

[5] = target: T5, hNav1.4 (Homo sapiens, UniProt P35499); test: FLIPR membrane potential assay, hNav1.4; settings: for Selectivity for Nav1.7, Nav subtype 1.4: membrane potential assay
T5 construct: host or cells: HEK293
Procedure: as §1, §2

[6] = target: T6, hNav1.8 (Homo sapiens, UniProt Q9Y5Y9); test: FLIPR membrane potential assay, hNav1.8; settings: for Selectivity for Nav1.7, Nav subtype 1.8: membrane potential assay
T6 construct: host or cells: HEK293
Procedure: as §1, §2

[7] = target: T7, hNav1.7 (Homo sapiens, UniProt Q15858); test: FLIPR membrane potential assay, hNav1.7; settings: for Selectivity for Nav1.7, Nav subtype 1.7: membrane potential assay, reference subtype
T7 construct: host or cells: HEK293
Procedure: as §1, §2

[8] = target: T8, hNav1.5 (Homo sapiens, UniProt Q14524); test: FLIPR membrane potential assay, hNav1.5; settings: for Selectivity for Nav1.7, Nav subtype 1.5: membrane potential assay
T8 construct: host or cells: HEK293
Procedure: as §1, §2

T3 sequence (Q9UQD0 whole entry): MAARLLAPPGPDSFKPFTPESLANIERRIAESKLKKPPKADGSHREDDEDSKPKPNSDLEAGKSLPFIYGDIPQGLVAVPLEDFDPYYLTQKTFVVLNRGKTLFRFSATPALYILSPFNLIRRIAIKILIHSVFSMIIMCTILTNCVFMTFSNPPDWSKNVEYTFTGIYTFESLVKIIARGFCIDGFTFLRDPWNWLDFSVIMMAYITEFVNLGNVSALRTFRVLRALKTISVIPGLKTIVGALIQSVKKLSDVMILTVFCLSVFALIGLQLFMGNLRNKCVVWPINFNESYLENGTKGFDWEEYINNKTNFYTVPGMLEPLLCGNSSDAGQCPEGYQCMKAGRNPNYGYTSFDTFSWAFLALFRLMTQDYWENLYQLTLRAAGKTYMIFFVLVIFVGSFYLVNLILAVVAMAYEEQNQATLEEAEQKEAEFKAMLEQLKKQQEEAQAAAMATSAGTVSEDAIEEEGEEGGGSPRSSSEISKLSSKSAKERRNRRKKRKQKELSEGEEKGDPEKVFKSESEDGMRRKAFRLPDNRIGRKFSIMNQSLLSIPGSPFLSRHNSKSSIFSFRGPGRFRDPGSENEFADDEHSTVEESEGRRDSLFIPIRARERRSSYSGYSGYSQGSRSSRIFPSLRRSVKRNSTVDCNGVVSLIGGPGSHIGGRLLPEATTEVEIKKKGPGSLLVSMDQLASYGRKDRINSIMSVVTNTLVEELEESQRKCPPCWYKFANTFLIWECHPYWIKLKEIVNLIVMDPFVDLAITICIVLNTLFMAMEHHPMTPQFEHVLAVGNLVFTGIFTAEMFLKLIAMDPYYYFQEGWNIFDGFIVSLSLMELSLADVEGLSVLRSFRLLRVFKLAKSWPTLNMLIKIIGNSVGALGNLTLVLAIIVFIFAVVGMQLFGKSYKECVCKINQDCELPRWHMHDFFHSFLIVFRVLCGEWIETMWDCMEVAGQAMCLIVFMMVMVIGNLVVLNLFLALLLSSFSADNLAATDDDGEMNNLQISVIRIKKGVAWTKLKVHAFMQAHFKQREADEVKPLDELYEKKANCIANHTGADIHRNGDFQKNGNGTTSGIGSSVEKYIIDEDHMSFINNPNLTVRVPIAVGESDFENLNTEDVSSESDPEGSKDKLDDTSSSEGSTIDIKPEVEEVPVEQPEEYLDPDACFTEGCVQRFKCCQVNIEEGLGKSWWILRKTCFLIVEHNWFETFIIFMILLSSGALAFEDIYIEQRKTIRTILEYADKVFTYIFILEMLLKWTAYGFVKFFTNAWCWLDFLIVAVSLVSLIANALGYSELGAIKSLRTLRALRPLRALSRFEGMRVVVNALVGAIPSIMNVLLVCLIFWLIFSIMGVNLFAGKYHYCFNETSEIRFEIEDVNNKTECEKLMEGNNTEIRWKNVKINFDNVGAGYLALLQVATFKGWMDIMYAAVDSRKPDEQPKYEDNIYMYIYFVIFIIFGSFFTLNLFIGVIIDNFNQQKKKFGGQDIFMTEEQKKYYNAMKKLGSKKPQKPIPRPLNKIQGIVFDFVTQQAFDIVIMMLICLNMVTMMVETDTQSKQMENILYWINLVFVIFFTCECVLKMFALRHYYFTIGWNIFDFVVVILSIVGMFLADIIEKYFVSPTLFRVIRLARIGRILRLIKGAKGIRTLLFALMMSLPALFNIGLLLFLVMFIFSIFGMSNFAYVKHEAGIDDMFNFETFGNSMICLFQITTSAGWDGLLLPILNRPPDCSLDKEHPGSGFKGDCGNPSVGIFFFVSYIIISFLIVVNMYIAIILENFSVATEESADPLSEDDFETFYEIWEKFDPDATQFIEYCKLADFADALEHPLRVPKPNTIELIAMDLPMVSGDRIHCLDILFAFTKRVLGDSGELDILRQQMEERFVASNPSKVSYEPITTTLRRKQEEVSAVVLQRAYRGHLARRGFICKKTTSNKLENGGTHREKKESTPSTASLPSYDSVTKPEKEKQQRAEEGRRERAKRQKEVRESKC
T2 sequence (Q99250 whole entry): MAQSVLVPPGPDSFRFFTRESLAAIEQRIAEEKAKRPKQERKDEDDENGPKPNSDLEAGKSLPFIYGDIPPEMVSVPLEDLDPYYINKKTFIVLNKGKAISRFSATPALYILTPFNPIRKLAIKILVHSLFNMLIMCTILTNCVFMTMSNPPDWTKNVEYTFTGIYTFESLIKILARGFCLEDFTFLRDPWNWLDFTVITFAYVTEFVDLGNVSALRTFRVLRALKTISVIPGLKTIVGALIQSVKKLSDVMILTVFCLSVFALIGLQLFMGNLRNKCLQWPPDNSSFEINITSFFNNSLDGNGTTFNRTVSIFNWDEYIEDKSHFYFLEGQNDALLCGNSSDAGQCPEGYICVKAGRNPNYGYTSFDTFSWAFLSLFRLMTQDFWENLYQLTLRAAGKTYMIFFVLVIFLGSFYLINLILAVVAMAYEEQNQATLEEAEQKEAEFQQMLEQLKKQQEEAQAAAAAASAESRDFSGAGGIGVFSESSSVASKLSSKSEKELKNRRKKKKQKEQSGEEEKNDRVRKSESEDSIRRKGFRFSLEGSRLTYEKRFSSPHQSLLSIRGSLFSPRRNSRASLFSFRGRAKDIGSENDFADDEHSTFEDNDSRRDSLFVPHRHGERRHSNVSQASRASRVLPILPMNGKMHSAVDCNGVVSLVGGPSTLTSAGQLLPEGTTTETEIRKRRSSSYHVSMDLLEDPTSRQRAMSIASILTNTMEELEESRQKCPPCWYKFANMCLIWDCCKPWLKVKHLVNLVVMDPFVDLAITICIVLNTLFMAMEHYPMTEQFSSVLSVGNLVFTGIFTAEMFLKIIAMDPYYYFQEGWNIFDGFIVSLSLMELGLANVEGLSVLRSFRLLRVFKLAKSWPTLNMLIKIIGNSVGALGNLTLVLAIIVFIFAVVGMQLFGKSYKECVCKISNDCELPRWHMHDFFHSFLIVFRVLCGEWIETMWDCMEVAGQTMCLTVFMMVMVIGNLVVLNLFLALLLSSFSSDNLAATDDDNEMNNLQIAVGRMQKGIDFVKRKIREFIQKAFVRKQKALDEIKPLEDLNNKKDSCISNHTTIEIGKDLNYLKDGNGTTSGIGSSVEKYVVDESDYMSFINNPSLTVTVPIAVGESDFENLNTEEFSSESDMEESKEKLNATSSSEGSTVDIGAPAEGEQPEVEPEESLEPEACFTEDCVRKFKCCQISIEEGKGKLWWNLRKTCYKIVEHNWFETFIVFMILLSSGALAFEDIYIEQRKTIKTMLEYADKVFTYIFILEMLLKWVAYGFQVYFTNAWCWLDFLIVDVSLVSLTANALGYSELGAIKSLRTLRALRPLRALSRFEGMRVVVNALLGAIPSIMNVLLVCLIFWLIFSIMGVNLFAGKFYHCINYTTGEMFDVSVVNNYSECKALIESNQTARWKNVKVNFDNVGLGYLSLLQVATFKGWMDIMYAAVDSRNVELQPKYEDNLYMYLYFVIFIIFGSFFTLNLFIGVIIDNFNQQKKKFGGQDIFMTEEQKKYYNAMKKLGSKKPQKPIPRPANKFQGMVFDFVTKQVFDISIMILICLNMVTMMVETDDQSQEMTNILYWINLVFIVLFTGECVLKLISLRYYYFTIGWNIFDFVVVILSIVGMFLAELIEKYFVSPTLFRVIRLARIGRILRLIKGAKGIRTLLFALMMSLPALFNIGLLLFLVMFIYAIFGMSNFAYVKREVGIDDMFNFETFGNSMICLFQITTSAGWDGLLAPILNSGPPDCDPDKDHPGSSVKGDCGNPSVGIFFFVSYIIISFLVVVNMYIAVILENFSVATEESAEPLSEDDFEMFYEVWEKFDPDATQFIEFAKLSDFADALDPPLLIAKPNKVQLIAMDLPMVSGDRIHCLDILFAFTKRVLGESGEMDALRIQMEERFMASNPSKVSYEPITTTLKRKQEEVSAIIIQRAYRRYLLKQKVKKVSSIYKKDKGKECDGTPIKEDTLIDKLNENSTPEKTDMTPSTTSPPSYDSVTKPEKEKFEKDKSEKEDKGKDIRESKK

SMILES | IC50 [1] [µM] | Selectivity for Nav1.7, Nav subtype 1.1 [1] | IC50 [2] [µM] | Selectivity for Nav1.7, Nav subtype 1.2 [2] | IC50 [3] [µM] | Selectivity for Nav1.7, Nav subtype 1.6 [3] | IC50 [4] [µM] | Selectivity for Nav1.7, Nav subtype 1.3 [4] | IC50 [5] [µM] | Selectivity for Nav1.7, Nav subtype 1.4 [5] | IC50 [6] [µM] | Selectivity for Nav1.7, Nav subtype 1.8 [6] | IC50 [7] [µM] | Selectivity for Nav1.7, Nav subtype 1.7 [7] | IC50 [8] [µM] | Selectivity for Nav1.7, Nav subtype 1.5 [8]
CSCC[C@@H]1NC(=O)[C@H](Cc2ccc(O)cc2)NC(=O)[C@H](CCCNC(=N)N)NC(=O)[C@@H](NC(=O)[C@@H](N)CC(=O)O)CSSC[C@@H]2NC(=O)[C@@H]3CSSC[C@@H](C(=O)N[C@@H](C)C(=O)N[C@@H](Cc4c[nH]c5ccccc45)C(=O)N[C@@H](CC(=O)O)C(=O)N[C@@H](Cc4ccccc4)C(=O)N[C@H](C(=O)N[C@@H](Cc4ccccc4)C(=O)N[C@H](C(=O)O)[C@@H](C)O)[C@@H](C)O)NC(=O)[C@H](Cc4ccc(O)cc4)NC(=O)[C@H](CCCCN)NC(=O)[C@H](CCSC)NC(=O)[C@H](CCCNC(=N)N)NC(=O)[C@H](CCCNC(=N)N)NC(=O)[C@H](CCCCN)NC(=O)[C@H](CSSC[C@H](NC(=O)[C@H](CC(=O)O)NC(=O)CNC(=O)[C@H](Cc4ccccc4)NC1=O)C(=O)N[C@@H](CCC(=O)O)C(=O)N[C@@H](CCCCN)C(=O)N[C@@H](CC(=O)O)C(=O)N[C@@H](CCC(=O)O)C(=O)N[C@@H](CC(=O)O)C(=O)N3)NC(=O)CNC(=O)[C@H](CC(C)C)NC(=O)[C@H](Cc1c[nH]cn1)NC(=O)[C@H](CCCCN)NC2=O [[K24R]Pnc1a] (H-DCRYMFGDCEKDEDCCKHLGCKRRMKYCAWDFTFT-OH; disulfide 2-16, 9-21, 15-28) | 0.856 | 27 | 0.414 | 13 | > 30 | >900 | 8 | 260 | 3 | 102 | > 30 | >900 | 0.031 | 1 | > 30 | >900
CSCC[C@@H]1NC(=O)[C@H](C)NC(=O)[C@H](CCCNC(=N)N)NC(=O)[C@@H](NC(=O)[C@@H](N)CC(=O)O)CSSC[C@@H]2NC(=O)[C@@H]3CSSC[C@@H](C(=O)N[C@@H](C)C(=O)N[C@@H](Cc4c[nH]c5ccccc45)C(=O)N[C@@H](CC(=O)O)C(=O)N[C@@H](Cc4ccccc4)C(=O)N[C@H](C(=O)N[C@@H](Cc4ccccc4)C(=O)N[C@H](C(=O)O)[C@@H](C)O)[C@@H](C)O)NC(=O)[C@H](Cc4ccc(O)cc4)NC(=O)[C@H](CCCCN)NC(=O)[C@H](CCSC)NC(=O)[C@H](CCCCN)NC(=O)[C@H](CCCNC(=N)N)NC(=O)[C@H](CCCCN)NC(=O)[C@H](CSSC[C@H](NC(=O)[C@H](CC(=O)O)NC(=O)CNC(=O)[C@H](Cc4ccccc4)NC1=O)C(=O)N[C@@H](CCC(=O)O)C(=O)N[C@@H](CCCCN)C(=O)N[C@@H](CC(=O)O)C(=O)N[C@@H](CCC(=O)O)C(=O)N[C@@H](CC(=O)O)C(=O)N3)NC(=O)CNC(=O)[C@H](CC(C)C)NC(=O)[C@H](Cc1c[nH]cn1)NC(=O)[C@H](CCCCN)NC2=O [[Y4A]Pnc1a] (H-DCRAMFGDCEKDEDCCKHLGCKRKMKYCAWDFTFT-OH; disulfide 2-16, 9-21, 15-28) | 17 | 19 | 8 | 8 | > 30 | >30 | 20 | 22 | 12 | 12 | > 30 | >30 | 0.934 | 1 | 18 | 20
CSCC[C@@H]1NC(=O)[C@H](Cc2ccc(O)cc2)NC(=O)[C@H](CCCNC(=N)N)NC(=O)[C@@H](NC(=O)[C@@H](N)CC(=O)O)CSSC[C@@H]2NC(=O)[C@@H]3CSSC[C@@H](C(=O)N[C@@H](C)C(=O)N[C@@H](Cc4c[nH]c5ccccc45)C(=O)N[C@@H](CC(=O)O)C(=O)N[C@@H](Cc4ccccc4)C(=O)N[C@H](C(=O)N[C@@H](Cc4ccccc4)C(=O)N[C@H](C(=O)O)[C@@H](C)O)[C@@H](C)O)NC(=O)[C@H](Cc4ccc(O)cc4)NC(=O)[C@H](CCCCN)NC(=O)[C@H](CCSC)NC(=O)[C@H](CCCCN)NC(=O)[C@H](CCCNC(=N)N)NC(=O)[C@H](CCCCN)NC(=O)[C@H](CSSC[C@H](NC(=O)[C@H](CC(=O)O)NC(=O)CNC(=O)[C@H](Cc4ccccc4)NC1=O)C(=O)N[C@@H](CCCCN)C(=O)N[C@@H](CCCCN)C(=O)N[C@@H](CC(=O)O)C(=O)N[C@@H](CCC(=O)O)C(=O)N[C@@H](CC(=O)O)C(=O)N3)NC(=O)CNC(=O)[C@H](CC(C)C)NC(=O)[C@H](Cc1c[nH]cn1)NC(=O)[C@H](CCCCN)NC2=O [[E10K]Pnc1a] (H-DCRYMFGDCKKDEDCCKHLGCKRKMKYCAWDFTFT-OH; disulfide 2-16, 9-21, 15-28) | 0.384 | 9 | 0.172 | 4 | 0.82 | 20 | 5 | 128 | 2 | 49 | > 30 | >700 | 0.041 | 1 | 13 | 326

— patent publication US10662229B2, “Spider venom peptides and methods of use for modulating sodium channels” (priority 2016, dated 2020)
